{"source": "patent US5731343A", "about": "(The Scripps Research Institute, priority 1995, dated 1998)", "key": {"p60^v-src [1]": {"system": "p60^v-src", "conditions": "cited from earlier work"}, "p60^c-src": {"biological_target": "p60^c-src (Homo sapiens, UniProt P12931)", "sequence (P12931 whole entry)": "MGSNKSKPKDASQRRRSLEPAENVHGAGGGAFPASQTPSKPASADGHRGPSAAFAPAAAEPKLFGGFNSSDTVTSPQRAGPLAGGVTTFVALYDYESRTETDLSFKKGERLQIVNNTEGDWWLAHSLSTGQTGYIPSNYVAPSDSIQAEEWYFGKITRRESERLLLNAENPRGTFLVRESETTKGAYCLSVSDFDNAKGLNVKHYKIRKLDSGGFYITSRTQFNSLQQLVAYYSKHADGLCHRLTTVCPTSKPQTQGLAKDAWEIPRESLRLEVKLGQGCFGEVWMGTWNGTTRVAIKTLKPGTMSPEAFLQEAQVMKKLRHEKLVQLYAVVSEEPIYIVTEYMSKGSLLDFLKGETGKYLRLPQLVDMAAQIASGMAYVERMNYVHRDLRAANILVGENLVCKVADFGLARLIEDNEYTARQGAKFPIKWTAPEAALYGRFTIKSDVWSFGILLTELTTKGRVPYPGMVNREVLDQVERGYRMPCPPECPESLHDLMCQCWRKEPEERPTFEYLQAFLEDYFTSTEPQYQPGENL"}, "tumor cells": {"system": "tumor cells", "conditions": "U.S. Pat. Nos. 3,428,526 and 4,228,079; cited from earlier work"}, "COX-2 mRNA": {"system": "COX-2 mRNA", "experiment": "cells", "conditions": "Rattus norvegicus, Macrophage, 2 h, read-out: inhibition of COX-2 mRNA levels"}, "[2]": {"system": "mitogen activated protein kinases (MAPK-1, MAPK-2 and p38)", "conditions": "4 hours pretreatment; LPS (1 μg/ml); RAW 264.7"}, "endogenous COX": {"biological_target": "T1, endogenous COX (Rattus norvegicus, UniProt Q63921)", "T1 construct": "endogenous in cells; host or cells: alveolar macrophages of Sprague-Dawley rats (bronchoalveolar lavage)", "T1 sequence (Q63921 27-602)": "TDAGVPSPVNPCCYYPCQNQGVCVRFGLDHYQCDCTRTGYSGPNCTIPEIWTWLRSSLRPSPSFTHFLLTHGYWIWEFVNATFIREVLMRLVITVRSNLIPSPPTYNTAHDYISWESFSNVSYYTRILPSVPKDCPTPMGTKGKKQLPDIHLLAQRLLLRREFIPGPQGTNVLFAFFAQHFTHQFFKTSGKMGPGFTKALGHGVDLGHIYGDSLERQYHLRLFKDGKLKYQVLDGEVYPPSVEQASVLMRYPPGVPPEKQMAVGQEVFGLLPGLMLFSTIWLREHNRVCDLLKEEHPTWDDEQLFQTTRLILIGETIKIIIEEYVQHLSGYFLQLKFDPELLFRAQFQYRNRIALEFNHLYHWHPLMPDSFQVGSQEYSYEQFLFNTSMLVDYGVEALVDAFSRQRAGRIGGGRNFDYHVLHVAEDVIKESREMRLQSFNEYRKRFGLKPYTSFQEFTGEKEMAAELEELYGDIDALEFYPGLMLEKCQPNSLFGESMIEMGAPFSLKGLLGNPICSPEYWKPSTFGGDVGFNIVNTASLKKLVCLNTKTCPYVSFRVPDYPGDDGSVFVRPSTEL", "experiment": "Inactivation of endogenous COX activity in macrophages by aspirin", "type": "cell-based", "conditions": "aspirin 500 μM, 2.5 hours", "excerpt": "In the previous study using the same cell type, it was shown that increased COX activity in LPS-stimulated macrophages which were pretreated with aspirin, results from selective expression of COX-2 (Lee, et al., supra). Therefore, de novo synthesized COX-2 in aspirin-pretreated macrophages can be accurately and conveniently quantitated by measuring recovered COX activity."}, "cyclooxygenase": {"system": "cyclooxygenase", "conditions": "intact macrophages; Glaser et al. 1993; cited from earlier work"}, "[3]": {"system": "murine resident peritoneal macrophages", "conditions": "stimulated with zymosan, calcium ionophore A23187, and PMA; Glaser et al.; cited from earlier work"}, "COX-2": {"system": "COX-2", "experiment": "Recovery of COX activity (COX-2 expression) in aspirin-pretreated rat alveolar macrophages", "type": "cell-based", "conditions": "read-out: IC50 suppression of LPS-induced expression of COX-2"}, "c-raf": {"system": "c-raf", "conditions": "human T cells; June et al. 1990; cited from earlier work"}, "[4]": {"system": "tyrosine phosphorylated proteins (Src family tyrosine kinases)", "experiment": "Antiphosphotyrosine immunoblotting of LPS-stimulated macrophages", "type": "cell-based", "conditions": "4 hours pretreatment; LPS (10 μg/ml); rat alveolar macrophages"}, "RAW 264.7": {"system": "RAW 264.7", "conditions": "Weinstein et al., cited from earlier work"}, "p53/56^lyn": {"system": "p53/56^lyn", "experiment": "Western blot analysis of p53/56^lyn in LPS-stimulated macrophages", "type": "cell-based, rat", "conditions": "4 hours pretreatment; LPS (10 μg/ml)"}, "p60^v-src [5]": {"system": "p60^v-src", "conditions": "Uehara et al. 1989; cited from earlier work"}}, "note": "Where two headings read alike, the source gives them in different places.", "data": [{"smiles": "C[C@@H]1C[C@H]2O[C@@H]2/C=C\\C=C\\C(=O)Cc2c(Cl)c(O)cc(O)c2C(=O)O1", "note": "[Radicicol, 5-chloro-6-(7,8-epoxy-10-hydroxy-2-oxo-3,5-undecadienyl)-β-resorcyclic acid μ-lactone]", "values": [{"measurement": "inhibition of p60^v-src", "setting": "p60^v-src [1]; Kwon et al. 1992", "result": "inhibitor of p60^v-src"}, {"measurement": "IC50", "setting": "p60^c-src", "result": 8.2, "unit": "µM"}, {"measurement": "inhibitory effect in vitro on the growth of tumor cells", "setting": "tumor cells", "result": "strong inhibitory effect"}, {"measurement": "inhibition at 1 µg/mL", "setting": "COX-2 mRNA", "result": 50, "unit": "%"}, {"measurement": "inhibition of tyrosine phosphorylation of MAPKs", "setting": "[2]", "result": "inhibited tyrosine phosphorylation of MAPKs in a dose dependent fashion"}]}, {"smiles": "CC(=O)Oc1ccccc1C(=O)O", "note": "[aspirin]", "values": [{"measurement": "inhibition at 500 µM", "setting": "endogenous COX", "result": "> 90", "unit": "%"}]}, {"smiles": "O=c1c(-c2ccc(O)cc2)coc2cc(O)cc(O)c12", "note": "[genistein]", "values": [{"measurement": "inhibitory effect on cyclooxygenase activity", "setting": "cyclooxygenase", "result": "no inhibitory effect"}, {"measurement": "PGE2 production", "setting": "[3]", "result": "inhibited"}, {"measurement": "IC50", "setting": "COX-2", "result": 22, "unit": "µM"}]}, {"smiles": "CO[C@H]1[C@@H](OC)C[C@H](C)[C@@H](OC)C2=CC(=O)C=C(NC(=O)/C(C)=C/C=C\\[C@H](OC)[C@@H](OC(N)=O)/C(C)=C/[C@@H]1C)C2=O", "note": "[herbimycin A]", "values": [{"measurement": "IC50", "setting": "p60^v-src [1]; Uehara et al. 1989, read-out: IC50 in vitro kinase activity", "result": 12, "unit": "µM"}, {"measurement": "inhibitory effect on p60^v-src kinase activity in presence of sulfhydryl compounds", "setting": "p60^v-src [1]; sulfhydryl compounds", "result": "abolished"}, {"measurement": "PMA-stimulated c-raf activity", "setting": "c-raf", "result": "resistant to the inhibitory effects"}, {"measurement": "levels of tyrosine phosphorylated proteins", "setting": "[4]", "result": "suppressed levels of tyrosine phosphorylated proteins"}, {"measurement": "LPS-induced release of [^3 H]-arachidonic acid metabolites", "setting": "RAW 264.7; LPS", "result": "dramatically inhibits"}, {"measurement": "PMA-induced release of [^3 H]-arachidonic acid metabolites", "setting": "RAW 264.7; PMA", "result": "only weakly inhibits"}, {"measurement": "levels of p53/56^lyn", "setting": "p53/56^lyn", "result": "significant reduction levels of p53/56^lyn"}, {"measurement": "degradation of p60^v-src", "setting": "p60^v-src [5]", "result": "increased the degradation"}, {"measurement": "IC50", "setting": "COX-2", "result": 0.052, "unit": "µM"}]}, {"smiles": "N#CC(=Cc1ccc(O)c(O)c1)C(=O)Nc1ccccc1", "note": "[tryphostin (AG-494)]", "values": [{"measurement": "IC50", "setting": "COX-2; LPS", "result": 357, "unit": "µM"}]}, {"smiles": "N#CC(C#N)=Cc1cc(O)c(O)c(O)c1", "note": "[tyrphostin-25]", "values": [{"measurement": "inhibitory effect on cyclooxygenase activity", "setting": "cyclooxygenase", "result": "no inhibitory effect"}, {"measurement": "PGE2 production", "setting": "[3]", "result": "inhibited"}]}]}
